Reference: US9635859B2, “Pesticidal compositions and processes related thereto” (Dow AgroSciences LLC, priority 2012, dated 2017)

Test system: Beet Armyworm (Spodoptera exigua)
Assay: Bioassays on BAW, 128-well diet tray assay
Assay type: in vivo
Settings: percent mortality, second instar larvae, 50 μg/cm^2 on artificial diet, five to seven days, 25° C.; Table 3
Procedure: Certain molecules disclosed in this document were tested against BAW and CEW and CL using procedures described in the following examples. In the reporting of the results, the “BAW & CEW & CL Rating Table” was used (See Table Section).
Bioassays on BAW (Spodoptera exigua)
Bioassays on BAW were conducted using a 128-well diet tray assay. one to five second instar BAW larvae were placed in each well (3 mL) of the diet tray that had been previously filled with 1 mL of artificial diet to which 50 μg/cm^2 of the test compound (dissolved in 50 μL of 90:10 acetone-water mixture) had been applied (to each of eight wells) and then allowed to dry. Trays were covered with a clear self-adhesive cover, and held at 25° C., 14:10 light-dark for five to seven days. Percent mortality was recorded for the larvae in each well; activity in the eight wells was then averaged. The results are indicated in the table entitled “Table 3: Assay Results” (See Table Section).

SMILES | BAW Rating
Cc1cc(/C=C/C(c2cc(Cl)cc(Cl)c2)C(F)(F)F)ccc1C(=O)NCc1ccccc1F (stereo not drawn) [AC9] | A (50-100)
Cc1cc(/C=C/C(c2cc(Cl)cc(Cl)c2)C(F)(F)F)ccc1C(=O)NC1CSC1 (stereo not drawn) [AC10] | A (50-100)
Cc1cc(/C=C/C(c2cc(Cl)cc(Cl)c2)C(F)(F)F)ccc1C(=O)NCc1ccccc1 (stereo not drawn) [AC11] | A (50-100)
Cc1cc(/C=C/C(c2cc(Cl)cc(Cl)c2)C(F)(F)F)ccc1C(=O)NCc1ccccn1 (stereo not drawn) [AC12] | A (50-100)
Cc1cc(/C=C/C(c2cc(Cl)cc(Cl)c2)C(F)(F)F)ccc1C(=O)NC1CS(=O)(=O)C1 (stereo not drawn) [AC13] | A (50-100)
Cc1cc(/C=C/C(c2cc(Cl)cc(Cl)c2)C(F)(F)F)ccc1C(=O)NCc1cnc(Cl)s1 (stereo not drawn) [AC15] | A (50-100)
Cc1cc(/C=C/C(c2cc(Cl)cc(Cl)c2)C(F)(F)F)ccc1C(=O)NC(C)(C)c1ccccn1 (stereo not drawn) [AC16] | A (50-100)
Cc1cc(/C=C/C(c2cc(Cl)cc(Cl)c2)C(F)(F)F)ccc1C(=O)NNc1ccccc1F (stereo not drawn) [AC17] | A (50-100)
Cc1cc(/C=C/C(c2cc(Cl)cc(Cl)c2)C(F)(F)F)ccc1C(=O)NCc1ncccn1 (stereo not drawn) [AC18] | A (50-100)
Cc1cc(/C=C/C(c2cc(Cl)cc(Cl)c2)C(F)(F)F)ccc1C(=O)NCc1ccoc1 (stereo not drawn) [AC20] | A (50-100)
Cc1cc(/C=C/C(c2cc(Cl)c(Cl)c(Cl)c2)C(F)(F)F)ccc1C(=O)NCc1ccc(Cl)nc1 (stereo not drawn) [AC22] | A (50-100)
Cc1cc(/C=C/C(c2cc(Cl)c(Cl)c(Cl)c2)C(F)(F)F)ccc1C(=O)NC1CSC1 (stereo not drawn) [AC23] | A (50-100)
Cc1cc(/C=C/C(c2cc(Cl)c(Cl)c(Cl)c2)C(F)(F)F)ccc1C(=O)NCc1cnc(Cl)s1 (stereo not drawn) [AC26] | A (50-100)
Cc1cc(/C=C/C(c2cc(Cl)c(Cl)c(Cl)c2)C(F)(F)F)ccc1C(=O)NC(C)(C)c1ccccn1 (stereo not drawn) [AC27] | A (50-100)
O=C(NCc1ccc(Cl)nc1)c1ccc(/C=C/C(c2cc(Cl)c(Cl)c(Cl)c2)C(F)(F)F)cc1Cl (stereo not drawn) [AC28] | A (50-100)
O=C(NC1CSC1)c1ccc(/C=C/C(c2cc(Cl)c(Cl)c(Cl)c2)C(F)(F)F)cc1Cl (stereo not drawn) [AC29] | A (50-100)
O=C(NC1CS(=O)(=O)C1)c1ccc(/C=C/C(c2cc(Cl)c(Cl)c(Cl)c2)C(F)(F)F)cc1Cl (stereo not drawn) [AC30] | A (50-100)
O=C(NCc1ccc(Cl)nc1)c1ccc(/C=C/C(c2cc(Cl)c(Cl)c(Cl)c2)C(F)(F)F)cc1Br (stereo not drawn) [AC31] | A (50-100)
O=C(NC1CSC1)c1ccc(/C=C/C(c2cc(Cl)c(Cl)c(Cl)c2)C(F)(F)F)cc1Br (stereo not drawn) [AC32] | A (50-100)

SMILES | BAW Rating
O=C(NC1CS(=O)(=O)C1)c1ccc(/C=C/C(c2cc(Cl)c(Cl)c(Cl)c2)C(F)(F)F)cc1Br (stereo not drawn) [AC33] | A (50-100)
O=C(NC1CSC1)c1ccc(/C=C/C(c2cc(Cl)c(Cl)c(Cl)c2)C(F)(F)F)cc1C(F)(F)F (stereo not drawn) [AC34] | A (50-100)
O=C(NC1CS(=O)(=O)C1)c1ccc(/C=C/C(c2cc(Cl)c(Cl)c(Cl)c2)C(F)(F)F)cc1C(F)(F)F (stereo not drawn) [AC35] | A (50-100)
O=C(NCc1ccc(Cl)nc1)c1ccc(/C=C/C(c2cc(Cl)c(Cl)c(Cl)c2)C(F)(F)F)cc1C(F)(F)F (stereo not drawn) [AC36] | A (50-100)
Cc1cc(/C=C/C(c2ccc(Cl)c(Cl)c2)C(F)(F)F)ccc1C(=O)NCc1ccc(Cl)nc1 (stereo not drawn) [AC37] | A (50-100)
Cc1cc(/C=C/C(c2cc(Cl)c(F)c(Cl)c2)C(F)(F)F)ccc1C(=O)NCc1ccc(Cl)nc1 (stereo not drawn) [AC38] | A (50-100)
Cc1cc(/C=C/C(c2cc(Cl)cc(Cl)c2)C(F)(F)F)ccc1C(=O)NCc1cncnc1 (stereo not drawn) [AC39, 4-((E)-3-(3,5-Dichlorophenyl)-4,4,4-trifluorobut-1-enyl)-2-methyl-N-((pyrimidin-5-yl)methyl)benzamide] | A (50-100)
Cc1cc(/C=C/C(c2cc(Cl)cc(Cl)c2)C(F)(F)F)ccc1C(=O)NCC(=O)NC1CC1 (stereo not drawn) [AC40] | A (50-100)
Cc1cc(/C=C/C(c2cc(Cl)cc(Cl)c2)C(F)(F)F)ccc1C(=O)NCC(=O)NC1CSC1 (stereo not drawn) [AC41] | A (50-100)
Cc1cc(/C=C/C(c2cc(Cl)cc(Cl)c2)C(F)(F)F)ccc1C(=O)NCc1nc2ccccc2s1 (stereo not drawn) [AC42] | A (50-100)
Cc1cc(/C=C/C(c2cc(Cl)cc(Cl)c2)C(F)(F)F)ccc1C(=O)NCc1cnccn1 (stereo not drawn) [AC43] | A (50-100)
Cc1cc(/C=C/C(c2cc(Cl)cc(Cl)c2)C(F)(F)F)ccc1C(=O)NN(C)c1ccccc1F (stereo not drawn) [AC45] | A (50-100)
Cc1cc(/C=C/C(c2cc(Cl)cc(Cl)c2)C(F)(F)F)ccc1C(=O)NCc1ccc(Cl)cc1 (stereo not drawn) [AC48] | A (50-100)
O=C(NCc1ccc(Cl)nc1)c1ccc(/C=C/C(c2cc(Cl)cc(Cl)c2)C(F)(F)F)cc1F (stereo not drawn) [AC49] | A (50-100)
Cc1cc(/C=C/C(c2cc(Cl)cc(Cl)c2)C(F)(F)F)ccc1C(=O)NCc1nccn1C (stereo not drawn) [AC50] | A (50-100)
Cc1cc(/C=C/C(c2cc(Cl)cc(Cl)c2)C(F)(F)F)ccc1C(=O)NCC(=O)N(C)CC(F)(F)F (stereo not drawn) [AC51] | A (50-100)
Cc1cc(/C=C/C(c2cc(Cl)c(F)c(Cl)c2)C(F)(F)F)ccc1C(=O)NC1CCOCC1 (stereo not drawn) [AC52] | A (50-100)
Cc1cc(/C=C/C(c2cc(Cl)c(F)c(Cl)c2)C(F)(F)F)ccc1C(=O)NCc1ccc(Cl)cn1 (stereo not drawn) [AC53] | A (50-100)
Cc1cc(/C=C/C(c2cc(Cl)c(F)c(Cl)c2)C(F)(F)F)ccc1C(=O)NCc1ccnc(Cl)c1 (stereo not drawn) [AC54] | A (50-100)

SMILES | BAW Rating
CC(C)(C)OC(=O)CNC(=O)c1ccc(/C=C/C(c2cc(Cl)c(Cl)c(Cl)c2)C(F)(F)F)cc1Br (stereo not drawn) [AC58] | A (50-100)
Cc1cc(/C=C/C(c2cc(Cl)cc(Cl)c2)C(F)(F)F)ccc1C(=O)Nc1ccc(Cl)nc1 (stereo not drawn) [AC59] | A (50-100)
O=C(NC1CSC1)c1ccc(/C=C/C(c2cc(Cl)cc(Cl)c2)C(F)(F)F)cc1F (stereo not drawn) [AC61] | A (50-100)
O=C(CNC(=O)c1ccc(/C=C/C(c2cc(Cl)cc(Cl)c2)C(F)(F)F)cc1F)NCC(F)(F)F (stereo not drawn) [AC62] | A (50-100)
O=C(NCc1ccc(Cl)nc1)c1ccc(/C=C/C(c2cc(Cl)c(F)c(Cl)c2)C(F)(F)F)cc1Br (stereo not drawn) [AC63] | A (50-100)
O=C(CNC(=O)c1ccc(/C=C/C(c2cc(Cl)c(Cl)c(Cl)c2)C(F)(F)F)cc1Cl)NCC(F)(F)F (stereo not drawn) [AC64, (E)-2-Chloro-N-(2-oxo-2-((2,2,2-trifluoroethyl)amino)ethyl)-4-(4,4,4-trifluoro-3-(3,4,5-trichlorophenyl)but-1-en-1-yl)benzamide] | A (50-100)
O=C(NCc1ccc(Cl)nc1)c1ccc(/C=C/C(c2cc(Cl)c(F)c(Cl)c2)C(F)(F)F)cc1F (stereo not drawn) [AC65] | A (50-100)
O=C(CNC(=O)c1ccc(/C=C/C(c2cc(Cl)c(Cl)c(Cl)c2)C(F)(F)F)cc1Br)NCC(F)(F)F (stereo not drawn) [AC66] | A (50-100)
O=C(NC1CSC1)c1ccc(/C=C/C(c2cc(Cl)c(F)c(Cl)c2)C(F)(F)F)cc1F (stereo not drawn) [AC67] | A (50-100)
O=C(CNC(=O)c1ccc(/C=C/C(c2cc(Cl)c(F)c(Cl)c2)C(F)(F)F)cc1F)NCC(F)(F)F (stereo not drawn) [AC68] | A (50-100)
Cc1cc(/C=C/C(c2cc(Cl)c(F)c(Cl)c2)C(F)(F)F)ccc1C(=O)NCC(=O)NCC(F)(F)F (stereo not drawn) [AC69] | A (50-100)
COc1cc(/C=C/C(c2cc(Cl)c(F)c(Cl)c2)C(F)(F)F)ccc1C(=O)NC1CSC1 (stereo not drawn) [AC71] | A (50-100)
CCc1cc(/C=C/C(c2cc(Cl)c(F)c(Cl)c2)C(F)(F)F)ccc1C(=O)NCc1ccc(Cl)nc1 (stereo not drawn) [AC72] | A (50-100)
O=C(NCc1ccc(C(F)(F)F)nc1)c1ccc(/C=C/C(c2cc(Cl)c(Cl)c(Cl)c2)C(F)(F)F)cc1Br (stereo not drawn) [AC75] | A (50-100)
Cc1cc(/C=C/C(c2cc(Cl)c(F)c(Cl)c2)C(F)(F)F)ccc1C(=O)NCc1cc(Cl)ccn1 (stereo not drawn) [AC77] | A (50-100)
Cc1cc(/C=C/C(c2cc(Cl)c(Cl)c(Cl)c2)C(F)(F)F)ccc1C(=O)NCC(=O)NCC(F)(F)F (stereo not drawn) [AC78] | A (50-100)
O=C(CNC(=O)c1ccc(/C=C/C(c2cc(Cl)c(F)c(Cl)c2)C(F)(F)F)cc1Br)NCC(F)(F)F (stereo not drawn) [AC79, (E)-2-Bromo-4-(3-(3,5-dichloro-4-fluorophenyl)-4,4,4-trifluorobut-1-en-1-yl)-N-(2-oxo-2-((2,2,2-trifluoroethyl)amino)ethyl)benzamide] | A (50-100)
CCc1cc(/C=C/C(c2cc(Cl)c(F)c(Cl)c2)C(F)(F)F)ccc1C(=O)NCC(=O)NCC(F)(F)F (stereo not drawn) [AC80] | A (50-100)
Cc1cc(/C=C/C(c2cc(Cl)cc(Cl)c2)C(F)(F)F)ccc1C(=O)NCC(=O)NC1CS(=O)(=O)C1 (stereo not drawn) [AC81] | A (50-100)
